The values that follow come from patent US5447957A, “Anti-inflammatory compounds” (SmithKline Beecham Corp., priority 1994, dated 1995).

For the assay, the system named is TPA-induced Mouse Ear Inflammation. Kind of assay: Assay (g): TPA-induced Mouse Ear Inflammation (ear edema and MPO). Particulars: "this animal model"; topical. It is filed as in vivo. From the text: The ability of compounds that inhibit CoA-IT and/or PLA2 to affect in vivo inflammatory responses may be assessed. Inflammatory responses are induced in the mouse ear by the topical application of a pro-inflammatory agent, such as 12-0-tetradecanoylphorbol 13-acetate (assay g). This produces an edematous response, as measured by increases in ear thickness, as well as increased inflammatory cellular infiltrate, as measured by increases in myeloperoxidase activity (as described in the methods). To further validate the mechanism of action inflammation induced by the direct adminstration of arachidonic acid can be used. In this case compounds altering arachidonic acid mobilization or liberation should be with our effect.
Male Balb/c inbred mice were obtained from Charle River Breeding Laboratories (Kingston, N.Y.). Within a single experiment mice (22-25 g) were age-matched. These in vivo experiments typically involved use of 5-6 animals/group.
TPA (12-0-tetradecanoylphorbol 13-acetate) (Sigma Chemical Company) in acetone ([…]) was applied to the inner and outer surfaces of the left ear of BALB/c male mice. The thickness of both ears was then measured with a dial micrometer (Mitutoyo, Japan) at both 2 and 4 hours after treatment, and the data expressed as the change in thickness (10^-3 cm) between treated and untreated ears. […] After measuring the edema, the inflammed left ears were removed and stored at -70° C. until they were assayed for MPO (myeloperoxidase) activity where appropriate.
On the day of the assay, partially thawed ear tissues were minced and then homogenized (10% w/v) with a Tissumizer homogenizer (Tekmar Co.) in 50 mM phosphate buffer (pH 6) containing 0.5% HTAB. The tissue homogenates were taken through three cycles of freeze-thaw, followed by brief sonication (10 sec). The method of Bradley et al. was used with modifications as described. The appearance of a colored product from the MPO-dependent reaction of o-dianisidine (0.167 mg/ml; Sigma) and hydrogen peroxide (0.0005%; Sigma) was measured spectrophotometrically at 460 nm. Supernatant MPO activity was quantified kinetically (change in absorbance measured over 3 min, sampled at 15-sec intervals) using a Beckman DU-7 spectrophotometer and a Kinetics Analysis package (Beckman Instruments, Inc.). One unit of MPO activity is defined as that degrading one micromole of peroxide per minute at 25° C.
Statistical analysis was done using Student's "t" test. The ED50 are values which cause a 50% inhibition of the inflammatory response and are calculated by regression analysis of the dose response data.

For the molecule `O=C(Nc1cc(C(F)(F)F)cc(C(F)(F)F)c1)Nc1ccccc1Oc1ccccc1C(=O)O` [Example 2, 2-[2-[3-[3,5-Bis (trifluoromethyl)phenyl]ureido]phenoxy]benzoic acid], the “inhibition in mouse ear inflammation animal model” value was “positive inhibition”.
The same measure for `O=C(Nc1cc(C(F)(F)F)cc(C(F)(F)F)c1)Nc1cc(C(F)(F)F)ccc1Oc1ccccc1C(=O)O` [Example 7, 2-[2-[3-[3,5-Bis(trifluoromethyl)phenyl]ureido]-4-trifluoromethylphenoxy]benzoic acid]: “positive inhibition”.
